Laboratory results published in PubChem BioAssay AID256 (DTP/NCI, 2004).
Toxic doses and inconclusive results are not listed. How the source made its calls: active means survival T/C of 150% or more; inactive means T/C below 125% in these data.

System: CD2F1 mice, L1210 leukemia ip, survival T/C
Experiment: NCI In Vivo Anticancer Drug Screen. Data for tumor model L1210 Leukemia (intraperitoneal) in CD2F1 (CDF1) mice
Details: endpoint: mean survival time, higher = longer survival
Procedure, shortened: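 Read-out first: treated-group measurement over vehicle-control measurement, expressed as a ratio. Animals bore a transplanted tumor line and were dosed with compound or vehicle.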

[1] = dose: 100.0 mg/kg/injection, schedule: Q01DX009 (ip), vehicle: saline with Tween-80
[2] = dose: 200.0 mg/kg/injection, schedule: Q01DX009 (ip), vehicle: saline with Tween-80
[3] = dose: 400.0 mg/kg/injection, schedule: Q01DX009 (ip), vehicle: saline with Tween-80
[4] = dose: 50.0 mg/kg/injection, schedule: Q04DX003 (ip), vehicle: saline
[5] = dose: 400.0 mg/kg/injection, schedule: Q04DX003 (ip), vehicle: saline with Tween-80
[6] = dose: 50.0 mg/kg/injection, schedule: Q01DX009 (ip), vehicle: saline with Tween-80
[7] = dose: 100.0 mg/kg/injection, schedule: Q04DX003 (ip), vehicle: saline with Tween-80
[8] = dose: 200.0 mg/kg/injection, schedule: Q04DX003 (ip), vehicle: saline with Tween-80

Measured: T/C

O=[N+]([O-])c1ccc2c(ccn2C2OCC(O)C(O)C2O)c1 (centres undefined)
inactive: dose: 450.0 mg/kg/injection, schedule: Q01DX009 (ip), vehicle: saline with Tween-80 101 % of control

Cc1ccc2c(c1)=N/C(=N\c1nc(O)c(O)[nH]1)N=2
inactive: [1] 104 % of control | [2] 92 % of control | [3] 104 % of control

COc1cc2cc3c4cc(OC)c(OC)cc4cc[n+]3c(C)c2cc1OC (tested in a mixture with another compound)
inactive: dose: 50.0 mg/kg/injection, schedule: Q01DX009 (ip), vehicle: saline 95 % of control | [4] 91 % of control | dose: 200.0 mg/kg/injection, schedule: Q04DX003 (ip), vehicle: saline 122 % of control | [5] 88 % of control

C/C(C(=O)O)=C(\C)C(=O)O
inactive: dose: 100.0 mg/kg/injection, schedule: Q01DX005 (ip), vehicle: saline 101 % of control | dose: 200.0 mg/kg/injection, schedule: Q01DX005 (ip), vehicle: saline 101 % of control | dose: 400.0 mg/kg/injection, schedule: Q01DX005 (ip), vehicle: saline 101 % of control

C=C[Si]1(C)O[Si](C)(C=C)O[Si](C)(C=C)O1 (centres undefined)
inactive: [6] 93 % of control | [1] 104 % of control | [2] 93 % of control

Cc1c(N)cc([N+](=O)[O-])c(C)c1[N+](=O)[O-]
inactive: [6] 110 % of control | [1] 104 % of control | [7] 98 % of control | [2] 117 % of control | [8] 98 % of control

O=C(Nc1cccc2ccccc12)c1ccccc1
inactive: dose: 100.0 mg/kg/injection, schedule: Q01DX001 (ip), vehicle: saline with Tween-80 95 % of control | dose: 200.0 mg/kg/injection, schedule: Q01DX001 (ip), vehicle: saline with Tween-80 95 % of control | dose: 400.0 mg/kg/injection, schedule: Q01DX001 (ip), vehicle: saline with Tween-80 92 % of control

O=c1[nH]cnc2c1ccn2C1OC(CO)C(O)C1O (centres undefined)
inactive: dose: 6.25 mg/kg/injection, schedule: Q01DX009 (ip), vehicle: saline 111 % of control | dose: 6.25 mg/kg/injection, schedule: Q04DX003 (ip), vehicle: saline sonified 106 % of control | dose: 12.5 mg/kg/injection, schedule: Q01DX009 (ip), vehicle: saline 90 % of control | dose: 12.5 mg/kg/injection, schedule: Q04DX003 (ip), vehicle: saline sonified 109 % of control | dose: 16.7 mg/kg/injection, schedule: Q04DX003 (ip), vehicle: saline sonified 121 % of control | dose: 25.0 mg/kg/injection, schedule: Q04DX003 (ip), vehicle: saline sonified 113 % of control | dose: 37.5 mg/kg/injection, schedule: Q04DX003 (ip), vehicle: saline sonified 119 % of control

NC(N)=N/N=C/c1ccc(Cl)cc1
inactive: dose: 20.0 mg/kg/injection, schedule: Q01DX009 (ip), vehicle: Klucel (hydroxypropylcellulose) (HPC) 100 % of control | dose: 40.0 mg/kg/injection, schedule: Q01DX009 (ip), vehicle: Klucel (hydroxypropylcellulose) (HPC) 96 % of control

CC1(C(=O)O)CCCC2(C)C3=C(CCCC3)CCC12 (centres undefined)
inactive: [1] 96 % of control | [7] 98 % of control | [2] 93 % of control | [8] 93 % of control | [3] 102 % of control | [5] 90 % of control

COC1OC(COC(c2ccccc2)(c2ccccc2)c2ccccc2)C(OC(C)=O)C1OC(C)=O (centres undefined)
inactive: dose: 100.0 mg/kg/injection, schedule: Q04DX003 (ip), vehicle: Klucel (hydroxypropylcellulose) (HPC) 109 % of control | dose: 200.0 mg/kg/injection, schedule: Q04DX003 (ip), vehicle: Klucel (hydroxypropylcellulose) (HPC) 89 % of control | dose: 400.0 mg/kg/injection, schedule: Q04DX003 (ip), vehicle: Klucel (hydroxypropylcellulose) (HPC) 89 % of control

CCCCCCCCCCCCSC#N
inactive: dose: 100.0 mg/kg/injection, schedule: Q04DX002 (ip), vehicle: Klucel (hydroxypropylcellulose) (HPC) 101 % of control | dose: 100.0 mg/kg/injection, schedule: Q04DX002 (ip), vehicle: saline with Tween-80 96 % of control | dose: 200.0 mg/kg/injection, schedule: Q04DX002 (ip), vehicle: Klucel (hydroxypropylcellulose) (HPC) 101 % of control | dose: 200.0 mg/kg/injection, schedule: Q04DX002 (ip), vehicle: saline with Tween-80 101 % of control

OC12CC3C4CC(O1)C1C4CC3C12 (centres undefined)
inactive: dose: 100.0 mg/kg/injection, schedule: Q01DX001 (ip), vehicle: saline 100 % of control | dose: 200.0 mg/kg/injection, schedule: Q01DX001 (ip), vehicle: saline 96 % of control | dose: 400.0 mg/kg/injection, schedule: Q01DX001 (ip), vehicle: saline 96 % of control

O=C(NC(=O)c1ccccc1)NC1=C(Cl)C(=O)c2ccccc2C1=O
inactive: dose: 100.0 mg/kg/injection, schedule: Q01DX001 (ip), vehicle: other 106 % of control | dose: 200.0 mg/kg/injection, schedule: Q01DX001 (ip), vehicle: other 104 % of control | dose: 400.0 mg/kg/injection, schedule: Q01DX001 (ip), vehicle: other 109 % of control

C/C(=N/O)c1cccc([N+](=O)[O-])c1
inactive: [1] 95 % of control | [7] 104 % of control | [2] 98 % of control | [8] 95 % of control | [5] 103 % of control

CC(=O)On1nnc2ccccc2c1=O
inactive: dose: 12.5 mg/kg/injection, schedule: Q01DX001 (ip), vehicle: distilled water + Tween-80 101 % of control | dose: 25.0 mg/kg/injection, schedule: Q01DX001 (ip), vehicle: distilled water + Tween-80 100 % of control | dose: 50.0 mg/kg/injection, schedule: Q01DX001 (ip), vehicle: distilled water + Tween-80 95 % of control | dose: 100.0 mg/kg/injection, schedule: Q01DX001 (ip), vehicle: distilled water + Tween-80 90 % of control

CC(C)C(Br)C(=O)NC(Cc1ccccc1)C(=O)O (centres undefined)
inactive: [7] 101 % of control | [8] 110 % of control | [5] 122 % of control

OC(Cc1ccccn1)C(Cl)(Cl)Cl (centres undefined)
inactive: dose: 50.0 mg/kg/injection, schedule: Q04DX002 (ip), vehicle: saline 97 % of control | [1] 102 % of control | dose: 100.0 mg/kg/injection, schedule: Q04DX002 (ip), vehicle: saline 114 % of control | [7] 95 % of control | [2] 112 % of control | dose: 200.0 mg/kg/injection, schedule: Q04DX002 (ip), vehicle: saline 94 % of control | [8] 111 % of control | [3] 98 % of control | [5] 103 % of control

CCCCCCCCCCCCOC(=O)C[n+]1cccc(C(=O)NCc2ccccc2)c1
inactive: dose: 6.25 mg/kg/injection, schedule: Q04DX003 (ip), vehicle: saline with Tween-80 108 % of control | dose: 12.5 mg/kg/injection, schedule: Q04DX003 (ip), vehicle: saline with Tween-80 104 % of control | dose: 25.0 mg/kg/injection, schedule: Q04DX003 (ip), vehicle: saline with Tween-80 106 % of control

NOCc1csc(NC(=O)Nc2ccccc2)n1
inactive: dose: 18.8 mg/kg/injection, schedule: Q01DX001 (ip), vehicle: saline with Tween-80 110 % of control | dose: 18.8 mg/kg/injection, schedule: Q04DX003 (ip), vehicle: saline with Tween-80 98 % of control | dose: 37.5 mg/kg/injection, schedule: Q01DX001 (ip), vehicle: saline with Tween-80 112 % of control | dose: 37.5 mg/kg/injection, schedule: Q04DX003 (ip), vehicle: saline with Tween-80 98 % of control | dose: 75.0 mg/kg/injection, schedule: Q01DX001 (ip), vehicle: saline with Tween-80 96 % of control | dose: 75.0 mg/kg/injection, schedule: Q04DX003 (ip), vehicle: saline with Tween-80 98 % of control

O.O.[NH-]C1CCCCC1[NH-].[Pt+2] (centres undefined)
inactive: dose: 0.31 mg/kg/injection, schedule: Q01DX009 (ip), vehicle: dextrose 109 % of control | dose: 0.63 mg/kg/injection, schedule: Q04DX003 (ip), vehicle: water 124 % of control | dose: 1.25 mg/kg/injection, schedule: Q01DX009 (ip), vehicle: dextrose 124 % of control

CCN(CC)Cc1cc(Nc2nc(NC3CCC(N(C)C)CC3)c3ccccc3n2)ccc1OC (centres undefined)
inactive: dose: 12.5 mg/kg/injection, schedule: Q04DX003 (ip), vehicle: saline 103 % of control | dose: 25.0 mg/kg/injection, schedule: Q04DX003 (ip), vehicle: saline 97 % of control | [4] 105 % of control

CC1(C)OC(C(COC(c2ccccc2)(c2ccccc2)c2ccccc2)OC(=O)c2ccccc2)C(C(COC(c2ccccc2)(c2ccccc2)c2ccccc2)OC(=O)c2ccccc2)O1 (centres undefined)
inactive: dose: 50.0 mg/kg/injection, schedule: Q01DX009 (ip), vehicle: Klucel (hydroxypropylcellulose) (HPC) 98 % of control | dose: 100.0 mg/kg/injection, schedule: Q01DX009 (ip), vehicle: Klucel (hydroxypropylcellulose) (HPC) 94 % of control | dose: 200.0 mg/kg/injection, schedule: Q01DX009 (ip), vehicle: Klucel (hydroxypropylcellulose) (HPC) 94 % of control
